Molecular target: HLA-B*14:02 (Homo sapiens, UniProt P01889, A93T/A95T/C349S/D138N/D201E/E187T/E204Q/H137Y/K202T/Q94N/R155S/R180L/S121W/S35A/Y140F/Y195H/Y91C)
Experiment: REVEAL MHC-peptide binding assay (ProImmune)
Conditions: for Binding Test (binding activity as percentage of positive control): relative to a known high-affinity T cell epitope for HLA-B*14:02, synthesized peptides, standard error 3 percentage points; for HLA binding activity (in words): REVEAL MHC-peptide binding assay, versus positive control
Text: To test whether outlier peptides identified by unsupervised motif clustering are false positives or true ligands with very weak binding affinity, we performed an HLA binding assay on 59 newly identified antigens for HLA-B*14:02 ( Supplementary Table 3 , 13 outliers and 46 non-outlier peptides). […] For LPFCRPGPEGQL, this peptide was likely called an outlier because the middle arginine residue was not predicted to take part in the 9-mer binding motif by NetMHCpan (the predicted core motif was LPFGPEGQL).
Figure 3 HLA binding assay for HLA-B*14:02. Peptide synthesis and binding assay were performed by ProImmune, Ltd. (see Methods). (A) Distributions of binding scores, measured as the percentages of the binding activity compared to a positive control, for clustered peptides (n = 46) and outlier peptides (n = 13). (B) Comparison of predicted percentage ranks of eluted ligand (% rank) and binding scores. The orange and red dashed lines indicate the 2% rank and 0.5% rank thresholds for weak and strong binders, respectively.
The binding activities of selected 59 newly identified candidate antigens for HLA-B*14:02 ( Supplementary Table 3 ) were assessed using the REVEAL MHC-peptide binding assay provided by ProImmune, Ltd. (Oxford, UK). Peptides were synthesized and quality checked using MALDI-TOF mass spectrometry by ProImmune, Ltd. (Oxford, UK). Binding activities were reported as percentage relative to the affinity of a positive control (a known high-affinity T cell epitope for HLA-B*14:02). According to the experiment report provided by the company, the standard error of the reported affinities is 3 percentage points.

| Sequence | Binding Test (binding activity as percentage of positive control) [%] | HLA binding activity (in words) |
| --- | --- | --- |
| IHTLVESL [candidate antigen for HLA-B*14:02, non-outlier] | 0.2 |  |
| LTGDIHAITAA [candidate antigen for HLA-B*14:02, outlier] | 0.2 |  |
| CVTIHEAL [candidate antigen for HLA-B*14:02, non-outlier] | 32.1 |  |
| ETASDLLLHSAL [candidate antigen for HLA-B*14:02, non-outlier] | 59.3 |  |
| CRFEGQFSI [candidate antigen for HLA-B*14:02, non-outlier] | 63.5 |  |
| CQVTHISL [candidate antigen for HLA-B*14:02, non-outlier] | 56.7 |  |
| QEVKQGKLL [candidate antigen for HLA-B*14:02, non-outlier] | 0.1 |  |
| LNQRAQAVL [candidate antigen for HLA-B*14:02, outlier] | 3.1 |  |
| TYDDATKTFTVTE [candidate antigen for HLA-B*14:02, non-outlier] | 0 |  |
| QTWWHGVL [candidate antigen for HLA-B*14:02, non-outlier] | 74.6 |  |
| QQILRDAL [candidate antigen for HLA-B*14:02, non-outlier] | 56.2 |  |
| QVWGTLTSL [candidate antigen for HLA-B*14:02, non-outlier] | 0.1 |  |
| IRLENEIQ [candidate antigen for HLA-B*14:02, non-outlier] | 0.1 |  |
| TRIEKRIVI [candidate antigen for HLA-B*14:02, non-outlier] | 54.9 |  |
| CHIYHHAL [candidate antigen for HLA-B*14:02, non-outlier] | 55.5 |  |
| QPAEHLQL [candidate antigen for HLA-B*14:02, non-outlier] | 49.4 |  |
| LPFCRPGPEGQL [candidate antigen for HLA-B*14:02, outlier] | 75.9 | high binding affinity |
| DRYLPGETF [candidate antigen for HLA-B*14:02, non-outlier] | 61.4 |  |
| REQFSSRGS [candidate antigen for HLA-B*14:02, outlier] | 0 |  |
| QGLSILLPKI [candidate antigen for HLA-B*14:02, outlier] | 0 |  |

| Sequence | Binding Test (binding activity as percentage of positive control) [%] | HLA binding activity (in words) |
| --- | --- | --- |
| LSYVSIMAAI [candidate antigen for HLA-B*14:02, non-outlier] | 0.2 |  |
| HPASHPEL [candidate antigen for HLA-B*14:02, non-outlier] | 29.9 |  |
| LLSPQQTI [candidate antigen for HLA-B*14:02, non-outlier] | 0.8 |  |
| LRNGGHFVI [candidate antigen for HLA-B*14:02, outlier] | 61.2 | high binding affinity |
| CEVTHQGL [candidate antigen for HLA-B*14:02, non-outlier] | 25.4 |  |
| LNVLHLDT [candidate antigen for HLA-B*14:02, non-outlier] | 5 |  |
| LGFTHHCL [candidate antigen for HLA-B*14:02, non-outlier] | 47.6 |  |
| PLGMNQLQAL [candidate antigen for HLA-B*14:02, non-outlier] | 0.3 |  |
| NQFQRQAAV [candidate antigen for HLA-B*14:02, non-outlier] | 63.6 |  |
| DNAVHCVI [candidate antigen for HLA-B*14:02, non-outlier] | 26.2 |  |
| ESGPSIVHRKCF [candidate antigen for HLA-B*14:02, outlier] | 0.1 |  |
| DQVGGLGR [candidate antigen for HLA-B*14:02, non-outlier] | 0.2 |  |
| QQFAHPPL [candidate antigen for HLA-B*14:02, non-outlier] | 82.8 |  |
| CDFVHQAL [candidate antigen for HLA-B*14:02, non-outlier] | 41.7 |  |
| DQYKRETI [candidate antigen for HLA-B*14:02, non-outlier] | 33.9 |  |
| AQGGVLPNI [candidate antigen for HLA-B*14:02, outlier] | 0.2 |  |
| QQGTHLSL [candidate antigen for HLA-B*14:02, non-outlier] | 47.7 |  |
| LPFCHSEL [candidate antigen for HLA-B*14:02, non-outlier] | 60.2 |  |
| FGYSRHTPF [candidate antigen for HLA-B*14:02, non-outlier] | 24.8 |  |
| SQYQRLLCI [candidate antigen for HLA-B*14:02, non-outlier] | 80.3 |  |

| Sequence | Binding Test (binding activity as percentage of positive control) [%] | HLA binding activity (in words) |
| --- | --- | --- |
| YQILHECL [candidate antigen for HLA-B*14:02, non-outlier] | 50.1 |  |
| SSSKGSLGGGF [candidate antigen for HLA-B*14:02, non-outlier] | 0.2 |  |
| AVSMIPPLLL [candidate antigen for HLA-B*14:02, outlier] | 0.2 |  |
| GLGILDPVLL [candidate antigen for HLA-B*14:02, non-outlier] | 0.1 |  |
| DLPEHAVL [candidate antigen for HLA-B*14:02, non-outlier] | 14.2 |  |
| DQFLKICL [candidate antigen for HLA-B*14:02, non-outlier] | 62.6 |  |
| VAPGKDLTK [candidate antigen for HLA-B*14:02, non-outlier] | 0 |  |
| SCRVHKII [candidate antigen for HLA-B*14:02, non-outlier] | 8.3 |  |
| TYDDATKTF [candidate antigen for HLA-B*14:02, outlier] | 0.1 |  |
| SPTCHACL [candidate antigen for HLA-B*14:02, non-outlier] | 19.8 |  |
| AAPARVSVA [candidate antigen for HLA-B*14:02, outlier] | 0.2 |  |
| HQITHQAM [candidate antigen for HLA-B*14:02, non-outlier] | 52.4 |  |
| QAYMNQRKL [candidate antigen for HLA-B*14:02, non-outlier] | 0.2 |  |
| LSSLSLPILI [candidate antigen for HLA-B*14:02, outlier] | 0.1 |  |
| QQLCHQTL [candidate antigen for HLA-B*14:02, non-outlier] | 56.8 |  |
| SRLDSVLLL [candidate antigen for HLA-B*14:02, non-outlier] | 43.9 |  |
| LPIIHCTL [candidate antigen for HLA-B*14:02, non-outlier] | 56.4 |  |
| YATLHHVI [candidate antigen for HLA-B*14:02, non-outlier] | 42.2 |  |

Reference: PMC8977642, “Unsupervised Mining of HLA-I Peptidomes Reveals New Binding Motifs and Potential False Positives in the Community Database” (Frontiers in Immunology, 2022)
